Results taken from paper PMC8997832, “Genetic Engineering Production of Ethyl Carbamate Hydrolase and Its Application in Degrading Ethyl Carbamate in Chinese Liquor” (Foods, 2022).

Test system: T1, ethyl carbamate hydrolase (ECH; AcECH)
T1 construct: codon-optimized synthetic gene in pET24b (NdeI/XhoI), C-terminal His-tag kept, E. coli BL21(DE3), Ni-NTA purified; about 33 kDa by SDS-PAGE
Assay: Berthelot indophenol ammonia assay, […] nm; Lineweaver-Burk
Assay type: biochemical, Acinetobacter calcoaceticus
Conditions: free enzyme; 5-30 mM EC; standard assay 70 °C, pH 7.0 (not restated for kinetics)

CCOC(N)=O [EC, ethyl carbamate]
Km: 9.38 mM
